Laboratory results: PMC4279406, “Simultaneous targeting of PI3Kδ and a PI3Kδ-dependent MEK1/2-Erk1/2 pathway for therapy in pediatric B-cell acute lymphoblastic leukemia” (Oncotarget, 2014)

How the values were obtained:
Assay in all cases: KinaseProfiler protein kinase activity
Assay type in all cases: biochemical
Conditions in all cases: 10 μM X-370
[1] = target: T1, Syk (Homo sapiens, UniProt P43405)
T1 construct: purchased Millipore KinaseProfiler
Procedure: (§1) In vitro kinase profile assays were analyzed by the Kinase Profiler Service (Millipore, United Kingdom) following its guidelines. A GST-tagged human p110δ and regulatory full-length p85 were co-expressed in insect cell Sf9. Recombinant protein was extracted by affinity purification. The PI3K kinase activity was determined in the increasing concentration of ATP and X-370 with PI3-Kinase HTRF™ Assay kit (Millipore) as described previously. […]
(§2) Table S1: Inhibitory activity of X-370 against protein kinases
(§3) kinome at 10 μM. The relative kianse activity left in the presence of 10 μM were shown (Mi llipore
(§4) Kinase activity (% of control) Kinase activity (% of control) Kinase activity (% of control)
(§5) CDK1/cyclinB 97 Lck activated 89 Ret 125

[2] = target: T2, DYRK2 (Homo sapiens, UniProt Q92630)
T2 construct: purchased Millipore KinaseProfiler
Procedure: as §1, §2, §3, §4, §5

[3] = target: T3, Tie2 (Homo sapiens, UniProt Q02763)
T3 construct: purchased Millipore KinaseProfiler
Procedure: as §1, §2, §3, §4, §5

[4] = target: T4, Ret (Homo sapiens, UniProt P07949)
T4 construct: purchased Millipore KinaseProfiler
Procedure: as §1, §2, §3, §4, §5

[5] = target: T5, PAK2 (Homo sapiens, UniProt Q13177)
T5 construct: purchased Millipore KinaseProfiler
Procedure: as §1, §2, §3, §4, §5

[6] = target: T6, PKA (Homo sapiens, UniProt P17612)
T6 construct: purchased Millipore KinaseProfiler
Procedure: as §1, §2, §3, §4, §5

[7] = tested on: CK1(y)
Procedure: as §1, §2, §3, §4, §5

[8] = target: T7, SGK (Homo sapiens, UniProt O00141)
T7 construct: purchased Millipore KinaseProfiler
Procedure: as §1, §2, §3, §4, §5

[9] = target: T8, ASK1 (Homo sapiens, UniProt Q99683)
T8 construct: purchased Millipore KinaseProfiler
Procedure: as §1, §2, §3, §4, §5

[10] = target: T9, Aurora-A (Homo sapiens, UniProt O14965)
T9 construct: purchased Millipore KinaseProfiler
Procedure: as §1, §2, §3, §4, §5

[11] = target: T10, GSK3 α (Homo sapiens, UniProt P49840)
T10 construct: purchased Millipore KinaseProfiler
Procedure: as §1, §2, §3, §4, §5

[12] = target: T11, SAPK2a(T106M) (Homo sapiens, UniProt Q16539, T106M)
T11 construct: purchased Millipore KinaseProfiler
Procedure: as §1, §2, §3, §4, §5

[13] = target: T12, ROCK-I (Homo sapiens, UniProt Q13464)
T12 construct: purchased Millipore KinaseProfiler
Procedure: as §1, §2, §3, §4, §5

[14] = target: T13, IKK α (Homo sapiens, UniProt O15111)
T13 construct: purchased Millipore KinaseProfiler
Procedure: as §1, §2, §3, §4, §5

[15] = target: T14, EphA1 (Homo sapiens, UniProt P21709)
T14 construct: purchased Millipore KinaseProfiler
Procedure: as §1, §2, §3, §4, §5

[16] = target: T15, MARK1 (Homo sapiens, UniProt Q9P0L2)
T15 construct: purchased Millipore KinaseProfiler
Procedure: as §1, §2, §3, §4, §5

[17] = target: T16, ALK (Homo sapiens, UniProt Q9UM73)
T16 construct: purchased Millipore KinaseProfiler
Procedure: as §1, §2, §3, §4, §5

[18] = target: T17, Pim-1 (Homo sapiens, UniProt P11309)
T17 construct: purchased Millipore KinaseProfiler
Procedure: as §1, §2, §3, §4, §5

[19] = target: T18, MAPK1 (Homo sapiens, UniProt P27361)
T18 construct: purchased Millipore KinaseProfiler
Procedure: as §1, §2, §3, §4, §5

[20] = target: T19, Met (Homo sapiens, UniProt P08581)
T19 construct: purchased Millipore KinaseProfiler
Procedure: as §1, §2, §3, §4, §5

[21] = target: T20, JNK1 α1 (Homo sapiens, UniProt P45983)
T20 construct: purchased Millipore KinaseProfiler
Procedure: as §1, §2, §3, §4, §5

[22] = target: T21, CDK1/cyclinB (Homo sapiens, UniProt P06493)
T21 construct: purchased Millipore KinaseProfiler
Procedure: as §1, §2, §3, §4, §5

[23] = target: T22, Ron (Homo sapiens, UniProt Q04912)
T22 construct: purchased Millipore KinaseProfiler
Procedure: as §1, §2, §3, §4, §5

[24] = target: T23, Lck activated (Homo sapiens, UniProt P06239)
T23 construct: purchased Millipore KinaseProfiler
Procedure: as §1, §2, §3, §4, §5

[25] = target: T24, FGFR1 (Homo sapiens, UniProt P11362)
T24 construct: purchased Millipore KinaseProfiler
Procedure: as §1, §2, §3, §4, §5

[26] = target: T25, BTK (Homo sapiens, UniProt Q06187)
T25 construct: purchased Millipore KinaseProfiler
Procedure: as §1, §2, §3, §4, §5

[27] = target: T26, mTOR (Homo sapiens, UniProt P42345)
T26 construct: purchased Millipore KinaseProfiler
Procedure: as §1, §2, §3, §4, §5

[28] = target: T27, Fyn (Homo sapiens, UniProt P06241)
T27 construct: purchased Millipore KinaseProfiler
Procedure: as §1, §2, §3, §4, §5

[29] = target: T28, cKit (Homo sapiens, UniProt P10721)
T28 construct: purchased Millipore KinaseProfiler
Procedure: as §1, §2, §3, §4, §5

[30] = target: T29, NEK11 (Homo sapiens, UniProt Q8NG66)
T29 construct: purchased Millipore KinaseProfiler
Procedure: as §1, §2, §3, §4, §5

[31] = target: T30, Plk1 (Homo sapiens, UniProt P53350)
T30 construct: purchased Millipore KinaseProfiler
Procedure: as §1, §2, §3, §4, §5

[32] = target: T31, KDR (Homo sapiens, UniProt P35968)
T31 construct: purchased Millipore KinaseProfiler
Procedure: as §1, §2, §3, §4, §5

[33] = target: T32, Src(1-530) (Homo sapiens, UniProt P12931)
T32 construct: purchased Millipore KinaseProfiler
Procedure: as §1, §2, §3, §4, §5

[34] = target: T33, MAPKAP-K2 (Homo sapiens, UniProt P49137)
T33 construct: purchased Millipore KinaseProfiler
Procedure: as §1, §2, §3, §4, §5

[35] = target: T34, CaMKI (Homo sapiens, UniProt Q14012)
T34 construct: purchased Millipore KinaseProfiler
Procedure: as §1, §2, §3, §4, §5

[36] = target: T35, Flt1 (Homo sapiens, UniProt P17948)
T35 construct: purchased Millipore KinaseProfiler
Procedure: as §1, §2, §3, §4, §5

[37] = target: T36, TBK1 (Homo sapiens, UniProt Q9UHD2)
T36 construct: purchased Millipore KinaseProfiler
Procedure: as §1, §2, §3, §4, §5

T36 sequence (Q9UHD2 whole entry): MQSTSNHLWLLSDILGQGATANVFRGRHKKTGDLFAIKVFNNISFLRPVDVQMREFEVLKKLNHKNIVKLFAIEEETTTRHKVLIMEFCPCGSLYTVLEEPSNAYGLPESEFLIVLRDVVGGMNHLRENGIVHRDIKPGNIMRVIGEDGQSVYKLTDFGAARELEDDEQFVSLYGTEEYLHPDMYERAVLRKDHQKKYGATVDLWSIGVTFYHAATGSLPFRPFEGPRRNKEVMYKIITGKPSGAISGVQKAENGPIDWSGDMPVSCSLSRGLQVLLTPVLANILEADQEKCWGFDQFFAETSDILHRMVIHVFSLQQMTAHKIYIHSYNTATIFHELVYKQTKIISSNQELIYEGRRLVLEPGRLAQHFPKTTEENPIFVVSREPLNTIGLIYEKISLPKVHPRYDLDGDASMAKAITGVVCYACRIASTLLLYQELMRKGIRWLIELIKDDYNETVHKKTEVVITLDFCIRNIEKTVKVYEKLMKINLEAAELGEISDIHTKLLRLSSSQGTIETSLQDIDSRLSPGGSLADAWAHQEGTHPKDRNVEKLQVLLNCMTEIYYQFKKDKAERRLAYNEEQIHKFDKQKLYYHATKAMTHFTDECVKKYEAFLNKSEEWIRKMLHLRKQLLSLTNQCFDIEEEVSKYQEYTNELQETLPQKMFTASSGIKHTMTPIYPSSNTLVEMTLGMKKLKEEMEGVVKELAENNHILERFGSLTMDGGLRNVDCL
T33 sequence (P49137 whole entry): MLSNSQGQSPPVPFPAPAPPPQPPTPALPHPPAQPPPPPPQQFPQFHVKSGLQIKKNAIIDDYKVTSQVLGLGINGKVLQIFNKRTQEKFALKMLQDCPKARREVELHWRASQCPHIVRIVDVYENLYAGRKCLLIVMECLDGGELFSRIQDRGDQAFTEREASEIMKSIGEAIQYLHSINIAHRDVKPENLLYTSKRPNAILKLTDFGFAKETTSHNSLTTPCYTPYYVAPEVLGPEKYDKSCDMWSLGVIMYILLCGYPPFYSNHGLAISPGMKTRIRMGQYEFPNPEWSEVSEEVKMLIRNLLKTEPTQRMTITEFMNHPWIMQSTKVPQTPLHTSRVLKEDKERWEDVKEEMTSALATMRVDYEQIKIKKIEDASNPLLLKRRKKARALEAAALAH
T28 sequence (P10721 26-976): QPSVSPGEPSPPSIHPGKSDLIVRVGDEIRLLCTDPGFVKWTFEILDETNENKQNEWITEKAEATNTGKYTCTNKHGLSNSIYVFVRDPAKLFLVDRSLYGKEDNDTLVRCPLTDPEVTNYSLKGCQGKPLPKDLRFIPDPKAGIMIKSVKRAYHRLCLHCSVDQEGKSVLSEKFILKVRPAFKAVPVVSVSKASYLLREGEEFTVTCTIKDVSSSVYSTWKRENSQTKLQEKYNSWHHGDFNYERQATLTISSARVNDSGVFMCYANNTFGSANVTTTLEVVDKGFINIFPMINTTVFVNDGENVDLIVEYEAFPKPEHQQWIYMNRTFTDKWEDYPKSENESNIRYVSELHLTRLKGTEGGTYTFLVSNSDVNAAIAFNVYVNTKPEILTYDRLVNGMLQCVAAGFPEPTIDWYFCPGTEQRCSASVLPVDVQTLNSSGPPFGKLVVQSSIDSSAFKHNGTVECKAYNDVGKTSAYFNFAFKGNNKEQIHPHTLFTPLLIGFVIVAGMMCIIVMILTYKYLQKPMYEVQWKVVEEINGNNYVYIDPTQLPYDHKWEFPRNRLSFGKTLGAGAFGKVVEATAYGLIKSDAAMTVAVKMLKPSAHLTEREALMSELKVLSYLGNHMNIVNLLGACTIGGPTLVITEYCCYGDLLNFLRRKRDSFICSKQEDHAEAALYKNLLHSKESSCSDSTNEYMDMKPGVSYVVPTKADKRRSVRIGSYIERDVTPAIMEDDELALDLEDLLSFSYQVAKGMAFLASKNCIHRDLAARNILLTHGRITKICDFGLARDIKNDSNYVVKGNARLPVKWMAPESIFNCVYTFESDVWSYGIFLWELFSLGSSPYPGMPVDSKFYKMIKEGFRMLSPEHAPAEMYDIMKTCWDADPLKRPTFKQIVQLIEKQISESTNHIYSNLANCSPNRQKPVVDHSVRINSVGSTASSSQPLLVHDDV
T2 sequence (Q92630 whole entry): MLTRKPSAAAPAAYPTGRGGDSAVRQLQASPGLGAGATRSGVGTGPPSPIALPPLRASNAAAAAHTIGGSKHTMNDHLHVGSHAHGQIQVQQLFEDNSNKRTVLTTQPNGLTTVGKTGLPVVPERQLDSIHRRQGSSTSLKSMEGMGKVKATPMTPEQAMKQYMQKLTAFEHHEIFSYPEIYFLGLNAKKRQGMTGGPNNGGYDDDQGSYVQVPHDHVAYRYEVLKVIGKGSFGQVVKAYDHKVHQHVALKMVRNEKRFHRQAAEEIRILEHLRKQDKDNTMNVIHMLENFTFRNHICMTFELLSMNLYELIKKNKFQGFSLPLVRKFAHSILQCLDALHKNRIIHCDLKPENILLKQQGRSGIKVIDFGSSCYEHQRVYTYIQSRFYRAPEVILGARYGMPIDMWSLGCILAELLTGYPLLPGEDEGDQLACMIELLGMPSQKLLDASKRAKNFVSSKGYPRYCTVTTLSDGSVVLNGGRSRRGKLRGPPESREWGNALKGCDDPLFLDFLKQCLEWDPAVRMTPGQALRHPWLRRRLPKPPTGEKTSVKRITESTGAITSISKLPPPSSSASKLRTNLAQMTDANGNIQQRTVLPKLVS
T25 sequence (Q06187 whole entry): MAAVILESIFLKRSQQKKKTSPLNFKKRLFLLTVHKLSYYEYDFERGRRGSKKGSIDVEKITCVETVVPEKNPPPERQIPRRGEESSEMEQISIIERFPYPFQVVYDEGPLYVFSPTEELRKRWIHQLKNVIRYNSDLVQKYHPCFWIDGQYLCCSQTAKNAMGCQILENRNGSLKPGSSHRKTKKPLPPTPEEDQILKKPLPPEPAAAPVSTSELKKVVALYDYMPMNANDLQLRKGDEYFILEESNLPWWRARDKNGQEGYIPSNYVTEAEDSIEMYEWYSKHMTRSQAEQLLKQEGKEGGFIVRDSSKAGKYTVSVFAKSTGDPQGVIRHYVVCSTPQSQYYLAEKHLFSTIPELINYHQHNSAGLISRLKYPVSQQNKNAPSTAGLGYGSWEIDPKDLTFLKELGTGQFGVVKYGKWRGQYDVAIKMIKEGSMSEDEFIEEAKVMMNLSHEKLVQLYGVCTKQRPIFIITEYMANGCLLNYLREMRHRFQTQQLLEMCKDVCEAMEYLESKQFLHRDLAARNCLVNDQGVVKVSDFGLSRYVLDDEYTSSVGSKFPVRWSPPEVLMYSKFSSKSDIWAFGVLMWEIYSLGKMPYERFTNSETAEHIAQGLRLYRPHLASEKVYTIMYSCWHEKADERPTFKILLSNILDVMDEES
T14 sequence (P21709 26-976): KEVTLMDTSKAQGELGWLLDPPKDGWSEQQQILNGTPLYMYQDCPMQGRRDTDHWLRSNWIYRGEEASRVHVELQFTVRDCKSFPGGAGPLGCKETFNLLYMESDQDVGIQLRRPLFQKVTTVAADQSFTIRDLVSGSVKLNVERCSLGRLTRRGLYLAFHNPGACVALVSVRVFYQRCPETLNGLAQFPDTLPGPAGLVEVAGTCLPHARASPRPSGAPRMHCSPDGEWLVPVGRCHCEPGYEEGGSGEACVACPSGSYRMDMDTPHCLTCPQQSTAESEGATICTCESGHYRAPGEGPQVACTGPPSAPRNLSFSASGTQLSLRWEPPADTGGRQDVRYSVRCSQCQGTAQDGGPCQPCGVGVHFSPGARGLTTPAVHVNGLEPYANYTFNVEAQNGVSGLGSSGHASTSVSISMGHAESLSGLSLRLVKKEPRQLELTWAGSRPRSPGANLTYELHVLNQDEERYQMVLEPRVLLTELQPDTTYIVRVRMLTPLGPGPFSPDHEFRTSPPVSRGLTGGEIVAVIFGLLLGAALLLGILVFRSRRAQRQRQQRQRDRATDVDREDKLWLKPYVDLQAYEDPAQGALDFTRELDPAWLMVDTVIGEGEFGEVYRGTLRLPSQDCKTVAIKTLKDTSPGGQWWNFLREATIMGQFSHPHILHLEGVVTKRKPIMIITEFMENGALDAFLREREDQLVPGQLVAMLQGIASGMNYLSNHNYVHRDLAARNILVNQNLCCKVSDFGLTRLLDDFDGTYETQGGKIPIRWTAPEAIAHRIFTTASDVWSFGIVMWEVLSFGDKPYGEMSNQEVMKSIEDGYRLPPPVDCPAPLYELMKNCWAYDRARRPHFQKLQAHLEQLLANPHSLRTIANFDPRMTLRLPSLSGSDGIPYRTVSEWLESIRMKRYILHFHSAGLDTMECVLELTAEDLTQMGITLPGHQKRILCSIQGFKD
T5 sequence (Q13177 whole entry): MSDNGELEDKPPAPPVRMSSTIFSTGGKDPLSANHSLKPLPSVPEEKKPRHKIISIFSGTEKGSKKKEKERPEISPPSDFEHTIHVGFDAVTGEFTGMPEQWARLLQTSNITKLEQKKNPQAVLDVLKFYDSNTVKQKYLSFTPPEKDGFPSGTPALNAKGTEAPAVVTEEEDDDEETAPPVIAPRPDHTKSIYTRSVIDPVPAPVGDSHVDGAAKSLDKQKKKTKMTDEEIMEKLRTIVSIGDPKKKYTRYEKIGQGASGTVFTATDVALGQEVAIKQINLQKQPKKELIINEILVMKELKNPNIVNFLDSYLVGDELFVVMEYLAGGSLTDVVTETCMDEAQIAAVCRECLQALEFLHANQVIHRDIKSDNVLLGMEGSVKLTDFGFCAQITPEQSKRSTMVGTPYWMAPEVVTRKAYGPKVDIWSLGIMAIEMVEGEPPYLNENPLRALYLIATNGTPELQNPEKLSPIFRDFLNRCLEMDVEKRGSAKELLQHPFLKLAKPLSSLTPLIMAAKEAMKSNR

O=C(N1CCCC1)N1CCC(n2cnc3c(-n4c(C(F)F)nc5ccccc54)nc(N4CCOCC4)nc32)CC1 [X-370]
Kinase activity (% of control) [1]: 85 % of control
Kinase activity (% of control) [2]: 102 % of control
Kinase activity (% of control) [3]: 88 % of control
Kinase activity (% of control) [4]: 125 % of control
Kinase activity (% of control) [5]: 100 % of control
Kinase activity (% of control) [6]: 106 % of control
Kinase activity (% of control) [7]: 64 % of control
Kinase activity (% of control) [8]: 72 % of control
Kinase activity (% of control) [9]: 107 % of control
Kinase activity (% of control) [10]: 73 % of control
Kinase activity (% of control) [11]: 94 % of control
Kinase activity (% of control) [12]: 102 % of control
Kinase activity (% of control) [13]: 93 % of control
Kinase activity (% of control) [14]: 95 % of control
Kinase activity (% of control) [15]: 99 % of control
Kinase activity (% of control) [16]: 89 % of control
Kinase activity (% of control) [17]: 79 % of control
Kinase activity (% of control) [18]: 88 % of control
Kinase activity (% of control) [19]: 81 % of control
Kinase activity (% of control) [20]: 113 % of control
Kinase activity (% of control) [21]: 90 % of control
Kinase activity (% of control) [22]: 97 % of control
Kinase activity (% of control) [23]: 111 % of control
Kinase activity (% of control) [24]: 89 % of control
Kinase activity (% of control) [25]: 108 % of control
Kinase activity (% of control) [26]: 121 % of control
Kinase activity (% of control) [27]: 47 % of control
Kinase activity (% of control) [28]: 97 % of control
Kinase activity (% of control) [29]: 104 % of control
Kinase activity (% of control) [30]: 95 % of control
Kinase activity (% of control) [31]: 100 % of control
Kinase activity (% of control) [32]: 90 % of control
Kinase activity (% of control) [33]: 99 % of control
Kinase activity (% of control) [34]: 95 % of control
Kinase activity (% of control) [35]: 117 % of control
Kinase activity (% of control) [36]: 99 % of control
Kinase activity (% of control) [37]: 93 % of control
